The target in experiment [1] is T1, native OVGP1 (buffalo oviduct-specific glycoprotein) (Bubalus bubalis, UniProt A4Z8Y1).
T1 construct: gene OVN; native, purified to homogeneity from buffalo oviducts; ~55-90 kDa; glycosylated; secreted mature form (precursor 540 aa, signal peptide 21 aa); monomer
T1 sequence (A4Z8Y1 22-540): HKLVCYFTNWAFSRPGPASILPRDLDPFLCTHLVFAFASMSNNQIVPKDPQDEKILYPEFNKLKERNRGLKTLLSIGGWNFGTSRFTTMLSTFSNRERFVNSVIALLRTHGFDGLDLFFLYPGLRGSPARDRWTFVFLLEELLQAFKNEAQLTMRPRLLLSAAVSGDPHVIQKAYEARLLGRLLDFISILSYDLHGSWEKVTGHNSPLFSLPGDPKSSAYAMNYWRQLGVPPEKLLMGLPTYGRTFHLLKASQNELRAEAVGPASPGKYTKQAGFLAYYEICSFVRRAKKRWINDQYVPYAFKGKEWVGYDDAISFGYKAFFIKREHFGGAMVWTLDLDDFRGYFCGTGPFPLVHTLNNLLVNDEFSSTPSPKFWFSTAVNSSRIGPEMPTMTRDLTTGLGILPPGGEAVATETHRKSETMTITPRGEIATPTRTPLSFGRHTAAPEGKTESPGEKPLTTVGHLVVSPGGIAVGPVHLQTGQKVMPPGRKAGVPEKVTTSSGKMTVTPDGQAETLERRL
Kind of experiment: intrinsic Trp fluorescence quenching (ex […] nm). In kind it is binding. The note with it: 10 uM protein, 5-15 mM ligand, 25 mM phosphate buffered saline, pH 7.2, 298 K.

The target in experiment [2] is T2, recombinant OVGP1 (buffalo oviduct-specific glycoprotein) (Bubalus bubalis, UniProt A4Z8Y1).
T2 construct: gene OVN; recombinant from Escherichia coli, ~58 kDa
T2 sequence (A4Z8Y1 22-540): T1 sequence (A4Z8Y1 22-540)
Description: intrinsic Trp fluorescence quenching (ex […] nm). In kind it is binding. The note with it: 10 uM protein, 5-15 mM ligand, 25 mM phosphate buffered saline, pH 7.2, 298 K.

The record followed here is publication PMC6904773, “Structural and functional characterization of buffalo oviduct-specific glycoprotein (OVGP1) expressed during estrous cycle” (Bioscience Reports, 2019).

Structures are written as SMILES.

Take `CC(=O)N[C@H]1C(O)O[C@H](CO)[C@H](O)[C@@H]1O` (stereo partly drawn) [GalNAc]: the “intrinsic Trp fluorescence quenching (ex 280 nm)” value in experiment [1] is “monosaccharides i.e. GlcNAc, GalNAc and mannose complexes of both native and recombinant OVGP1”; in experiment [2], “monosaccharides i.e. GlcNAc, GalNAc and mannose complexes of both native and recombinant OVGP1”.

On to `CC(=O)N[C@H]1C(O)O[C@H](CO)[C@@H](O)[C@@H]1O` (stereo partly drawn) [GlcNAc], for which the “intrinsic Trp fluorescence quenching (ex 280 nm)” value in experiment [1] is “fluorescence intensity of both native and recombinant OVGP1 decreased with increasing concentrations of ligands”; in experiment [2], “fluorescence intensity of both native and recombinant OVGP1 decreased with increasing concentrations of ligands”.

`OC[C@H]1OC(O)[C@@H](O)[C@@H](O)[C@@H]1O` (stereo partly drawn) [mannose]: the “intrinsic Trp fluorescence quenching (ex 280 nm)” value in experiment [1] was “monosaccharides i.e. GlcNAc, GalNAc and mannose complexes of both native and recombinant OVGP1”; in experiment [2], “monosaccharides i.e. GlcNAc, GalNAc and mannose complexes of both native and recombinant OVGP1”.
